Experimental data reported in patent US20260347353A1, “INDOLIZINE DERIVATIVES FOR TREATING CANCER” (Antares Therapeutics, Inc., priority 2022, published 2026).

Columns and labels:
[1] = tested on: NCIH1299-inducible p53 Y220C cells; experiment: Cell Proliferation Assay (CellTiter-Glo), NCIH1299-inducible p53 Y220C; assay type: cell-based; settings: Homo sapiens, NCI-H1299, 120 h, 5 days, read-out: CTG H1299 P53 Y220C IC50
Method in brief: (§1)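 Seeded at 250–500 cells/well, then compound-treated for 5 days; the NCIH1299 lines carry Tet-One inducible p53 Y220C or R273H transduced lentivirally. Viability by CellTiter-Glo luminescence after 10 min at room temperature; IC50 calculated.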

[2] = biological target: T1, p53 Y220C mutant protein (amino acid residues 94-293) (Homo sapiens, UniProt P04637, Y220C); experiment: Thermal Shift Assay (TSA), p53 Y220C dTM; assay type: binding
T1 construct: p53 Y220C mutant protein (amino acid residues 94-293)
Description: […] The volume is 5 μL/well. The sealed plate is then loaded onto a QuantStudio 7 Flex instrument for melting temperature (TM) measurement. The temperature is increased from 30 °C to 50 °C, at a rate of 0.03 °C/second. Data are fit into a Boltzmann two-state model to determine the TM.

[3] = biological target: T1, p53 Y220C mutant protein (amino acid residues 94-293); experiment: Surface Plasmon Resonance (SPR) assay, p53 Y220C Kd_kinetic; settings: multi-cycle kinetics, 16 or 20 °C, pH 7.5, 1:1 binding model
Method in brief: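 Kd from multi-cycle SPR kinetics fitted to a 1:1 model, using 2-fold, 7-point compound series over p53 Y220C (residues 94-293). Flow 30 μL/min, 60 s association, 120 s dissociation, at 16 or 20 °C in 50 mM Tris pH 7.5, 100 mM NaCl, 1 mM DTT, 0.01% Brij35, 0.05% Tween-20, 1% DMSO.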

NUGC3 cells (p53 Y220C) = experiment: Cell Proliferation Assay (CellTiter-Glo), NUGC3 p53 Y220C; assay type: cell-based; settings: Homo sapiens, NUGC-3, 120 h, 5 days, read-out: CTG NUGC3 P53 Y220C IC50
Method in brief: as §1

[4] = tested on: NCIH1299-inducible p53 R273H cells; experiment: Cell Proliferation Assay (CellTiter-Glo), NCIH1299-inducible p53 R273H; assay type: cell-based; settings: Homo sapiens, NCI-H1299, 120 h, 5 days, read-out: CTG H1299 P53 R273H IC50
Description: Inducible p53 Y220C and R273H constructs (Tet-One inducible expression system; Takara) were stably expressed in NCIH1299 cells by lentiviral transduction. NUGC3, A549, BxPC3, T3M4, HuH7, HCC2935, MFE296, NCIH1299, NCIH1299-inducible p53 Y220C, and NCIH1299-inducible p53 R273H cell lines were used for cell proliferation assay. 250-500 cells were seeded in each well of 384 plate and then compounds were dispensed into each well using Echo or Tecan. After 5 days of incubation, equal volume of CellTiter-Glo reagent (G7570; Promega) was added into each well and the plate was incubated at room temperature for 10 minutes with shaking. The luminescent signal was measured by PheraStar microplate reader and IC50 was calculated.

p53 Y220C = p53 Y220C (Homo sapiens, UniProt P04637, Y220C); experiment: Luciferase Reporter Assay, p53 Y220C (NCIH1299 cells with inducible p53 Y220C and p53 response element-luciferase); assay type: cell-based; settings: 6 hour compound treatment, read-out: Luc P53 Y220C AC50
Method in brief: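 NCI-H1299 cells stably carrying a p53 response element-luciferase reporter and Tet-inducible p53 Y220C were induced with 0.5 ug/mL doxycycline for 24 h, then treated with compound for 6 h. Luminescence was read after One-Glo addition. AC50 was derived relative to 10 uM tool compound as positive control.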

ΔTm at 10 µM ([2]; 10 uM compound) [°C] | ΔTm at 100 µM ([2]; 100 μM compound, 3 hours at 20 °C, pH 7.4) [°C] | Kd [3] [nM] | AC50 (p53 Y220C) [nM] | Compound | IC50 [1] [nM] | IC50 (NUGC3 cells (p53 Y220C)) [nM] | IC50 [4] [nM]
5 to 10 | 5 to 10 | 10 to 100 | ≥ 3000 | CN1CC[C@@H](Nc2cccn3c(SC(F)(F)F)c(-c4noc(CNC(=O)C5CC5)n4)nc23)[C@@H](F)C1 [Example 1, N-{[3-(8-{[(3S,4R)-3-fluoro-1-methylpiperidin-4-yl]amino}-3-[(trifluoromethyl)sulfanyl]imidazo[1,2-a]pyridin-2-yl)-1,2,4-oxadiazol-5-yl]methyl}cyclopropanecarboxamide] | ≥ 3000 | ≥ 3000 | ≥ 10000
– | – | 10 to 100 | ≥ 3000 | CN1CC[C@@H](Nc2cccn3c(SC(F)(F)F)c(-c4noc(CNC(=O)CC(C)(C)O)n4)cc23)[C@@H](F)C1 [Example 65, N-{[3-(8-{[(3S,4R)-3-fluoro-1-methylpiperidin-4-yl]amino}-3-[(trifluoromethyl)sulfanyl]indolizin-2-yl)-1,2,4-oxadiazol-5-yl]methyl}-3-hydroxy-3-methylbutanamide] | ≥ 3000 | ≥ 3000 | –
– | – | < 10 | < 750 | CN1CC[C@@H](Nc2cccn3c(SC(F)(F)F)c(-c4noc(CNC(=O)c5cnc(N6CCOCC6)o5)n4)cc23)[C@@H](F)C1 [Example 66, N-{[3-(8-{[(3S,4R)-3-fluoro-1-methylpiperidin-4-yl]amino}-3-[(trifluoromethyl)sulfanyl]indolizin-2-yl)-1,2,4-oxadiazol-5-yl]methyl}-2-(morpholin-4-yl)-1,3-oxazole-5-carboxamide] | < 750 | < 750 | –
– | – | < 10 | 750 to 1500 | CN1CC[C@@H](Nc2cccn3c(SC(F)(F)F)c(-c4noc(CNC(=O)N5CCOCC5)n4)cc23)[C@@H](F)C1 [Example 67, N-{[3-(8-{[(3S,4R)-3-fluoro-1-methylpiperidin-4-yl]amino}-3-[(trifluoromethyl)sulfanyl]indolizin-2-yl)-1,2,4-oxadiazol-5-yl]methyl}morpholine-4-carboxamide] | 750 to 1500 | 1500 to 3000 | –
